Measurements reported in ChEMBL document CHEMBL3885861, “Open TG-GATES”.

Species on record: Rattus norvegicus
Experiment: Open TG-GATES - Regimen: Daily Repeat
Type: toxicity, organism-based, Sprague-Dawley
Set-up: regimen Daily Repeat, gender Male, age 6 weeks
Conditions: in vivo, po, 0 mg/kg, route gavage, dose level Control; for APTT / Bas / Eos / Fbg / Hb / Ht / Lym / MCH / MCHC / MCV / Mono / Neu / PT / Plat / RBC / Ret / WBC: tissue Blood
[1] = 72 h, tissue Kidney, time 3 day
[2] = 72 h, tissue Plasma, time 3 day

Structure (SMILES): O=C(O)c1ccccc1Nc1ccccc1 [FENAMIC ACID]
- TERMINAL_BW (72 h, time 3 day): 237 g
- APTT (72 h, time 3 day): 16.2 s
- Bas (72 h, time 3 day): 0.4%
- Eos (72 h, time 3 day): 1.2%
- Fbg (72 h, time 3 day): 270.2 mg/dL
- Hb (72 h, time 3 day): 13.9 g/dL
- Ht (72 h, time 3 day): 41.7%
- Lym (72 h, time 3 day): 75.2%
- MCH (72 h, time 3 day): 20.9 pg
- MCHC (72 h, time 3 day): 33.3%
- MCV (72 h, time 3 day): 62.7 fL
- Mono (72 h, time 3 day): 2.6%
- Neu (72 h, time 3 day): 20.6%
- PT (72 h, time 3 day): 14.3 s
- Plat (72 h, time 3 day): 121.2 x10_4/uL
- RBC (72 h, time 3 day): 664.6 x10_4/ul
- Ret (72 h, time 3 day): 6.5%
- WBC (72 h, time 3 day): 95.3 x10_2/uL
- KIDNEY_L [1]: 1 g
- KIDNEY_R [1]: 1 g
- KIDNEY_TOTAL [1]: 2 g
- LIVER (72 h, tissue Liver, time 3 day): 10.9 g
- A/G [2]: 0.9
- ALP [2]: 1663.4 IU/L
- ALT [2]: 35.4 IU/L
- AST [2]: 63.4 IU/L
- BUN [2]: 13.2 mg/dL
- CRE [2]: 0.2 mg/dL
- Ca [2]: 11.6 mg/dL
- Cl [2]: 106.8 meq/L
- DBIL [2]: 0.01 mg/dL
- GLC [2]: 185.8 mg/dL
- IP [2]: 7.2 mg/dL
- K [2]: 4.3 meq/L
- LDH [2]: 97.8 IU/L
- Na [2]: 143.8 meq/L
- PL [2]: 147.4 mg/dL
- RALB [2]: 2.7 g/dL
- TBIL [2]: 0.044 mg/dL
- TC [2]: 73.4 mg/dL
- TG [2]: 91.8 mg/dL
- TP [2]: 5.7 g/dL
- gamma-GTP [2]: 1.6 IU/L
- TERMINAL_BW ([…], time 7 day): 271.7 g
- TERMINAL_BW ([…], time 14 day): 334.6 g
- TERMINAL_BW ([…], time 28 day): 425.8 g
- APTT ([…], time 7 day): 16.2 s
- Bas ([…], time 7 day): 0.8%
- Eos ([…], time 7 day): 1%
- Fbg ([…], time 7 day): 278.2 mg/dL
- Hb ([…], time 7 day): 13.5 g/dL
- Ht ([…], time 7 day): 40.3%
- Lym ([…], time 7 day): 80.2%
- MCH ([…], time 7 day): 20.5 pg
- MCHC ([…], time 7 day): 33.5%
- MCV ([…], time 7 day): 61 fL
- Mono ([…], time 7 day): 2.2%
- Neu ([…], time 7 day): 15.6%
- PT ([…], time 7 day): 13.8 s
- Plat ([…], time 7 day): 118.4 x10_4/uL
- RBC ([…], time 7 day): 661.2 x10_4/ul
- Ret ([…], time 7 day): 5.4%
- WBC ([…], time 7 day): 84.5 x10_2/uL
- APTT ([…], time 14 day): 16.3 s
- Bas ([…], time 14 day): 0.4%
- Eos ([…], time 14 day): 1%
- Fbg ([…], time 14 day): 296.2 mg/dL
- Hb ([…], time 14 day): 14.5 g/dL
- Ht ([…], time 14 day): 42.3%
- Lym ([…], time 14 day): 82.6%
- MCH ([…], time 14 day): 20.2 pg
- MCHC ([…], time 14 day): 34.2%
- MCV ([…], time 14 day): 59.2 fL
- Mono ([…], time 14 day): 1.8%
- Neu ([…], time 14 day): 14.2%
- PT ([…], time 14 day): 14.1 s
- Plat ([…], time 14 day): 112.2 x10_4/uL
- RBC ([…], time 14 day): 714.8 x10_4/ul
- Ret ([…], time 14 day): 4%
- WBC ([…], time 14 day): 73.8 x10_2/uL
- APTT ([…], time 28 day): 15.8 s
- Bas ([…], time 28 day): 0.2%
- Eos ([…], time 28 day): 1%
